According to ChEMBL document CHEMBL4371067, “Discovery of N-substituted 7-azaindoles as Pan-PIM kinases inhibitors - Lead optimization - Part III” (Bioorg Med Chem Lett, 2019):
Converted amounts (≈) assume the structure as drawn.

Experiments:
[1] = molecular target: Serine/threonine-protein kinase pim-1 (Homo sapiens, UniProt P11309); test: Inhibition of PIM1 (unknown origin) assessed as reduction in BAD phosphorylation at Ser-112 residue by TR-FRET assay
[2] = molecular target: Serine/threonine-protein kinase pim-2 (Homo sapiens, UniProt Q9P1W9); test: Inhibition of PIM2 (unknown origin) assessed as reduction in BAD phosphorylation at Ser-112 residue by TR-FRET assay
[3] = molecular target: Voltage-gated inwardly rectifying potassium channel KCNH2 (Homo sapiens, UniProt Q12809); test: Inhibition of human ERG
[4] = molecular target: Serine/threonine-protein kinase PIM (Homo sapiens, UniProt P11309+Q9P1W9+Q86V86); test: Inhibition of PIM in human KG1 cells assessed as reduction in pS6 level; assay type: cell-based
KG-1 = test: Antiproliferative activity against human KG1 cells; assay type: functional, cell-based
[5] = Permeability in human Caco2/TC7 cells at 5 uM; assay type: ADME, cell-based; conditions: for Papp at 5 µM: Caco-2, read-out: permeability; for permeability: caco2/tc7, 5 µM, 5 µM
[6] = Clearance in human liver microsomes assessed as drug extraction at 5 uM; assay type: ADME, Microsome; conditions: for hepatic extraction ratio at 5 µM: liver microsomes, read-out: CLH; for CLH: microsomes, 5 µM
[7] = Clearance in mouse liver microsomes assessed as drug extraction at 5 uM; assay type: ADME, Microsome; conditions: for hepatic extraction ratio at 5 µM: liver microsomes, read-out: CLH; for CLH: microsomes, 5 µM
[8] = AUC (0 to infinity) in rat at 3 mg/kg, iv administered as single dose; assay type: ADME, organism-based; design: dose 3 mg/kg, route intravenous, time infinity; conditions: in vivo
[9] = AUC (0 to infinity) in rat at 10 mg/kg, po administered as single dose; assay type: ADME, organism-based; design: dose 10 mg/kg, route oral, time infinity; conditions: in vivo
[10] = Cmax in rat at 10 mg/kg, po administered as single dose; assay type: ADME, organism-based; design: dose 10 mg/kg, route oral; conditions: in vivo
[11] = Half life in rat at 3 mg/kg, iv administered as single dose; assay type: ADME, organism-based; conditions: in vivo
[12] = Half life in rat at 10 mg/kg, po administered as single dose; assay type: ADME, organism-based; conditions: in vivo
[13] = Oral bioavailability in rat at 10 mg/kg administered as single dose; assay type: ADME, organism-based; conditions: in vivo
[14] = Clearance in rat at 3 mg/kg, iv administered as single dose; assay type: ADME, organism-based; conditions: in vivo
[15] = Volume of distribution at steady state in rat at 3 mg/kg, iv administered as single dose; assay type: ADME, organism-based; conditions: in vivo, read-out: Vdss
[16] = Thermodynamic solubility in pH 7.4 solution; assay type: physicochemical; conditions: buffer, read-out: Therm_solubility
[17] = Efflux ratio of permeability in human Caco2/TC7 cells at 5 uM; assay type: ADME, cell-based; conditions: Caco-2
hERG (KCNH2) [18] = molecular target: T1, hERG (KCNH2) (Homo sapiens, UniProt Q12809); test: Inhibition of human ERG at 10 uM relative to control
hERG (KCNH2) [19] = molecular target: T1, hERG (KCNH2); test: Inhibition of human ERG at 1 uM relative to control

CC1(CC#Cc2c(Cl)c3c(Cl)cc(C(N)=O)nc3n2[C@H]2CCCNC2)COC1
IC50 [1]: 2.4 nM
IC50 [2]: 15.7 nM
IC50 [3]: 5000 nM
EC50 [4]: 33 nM
EC50 (KG-1; Homo sapiens, KG-1): 289 nM
Papp at 5 µM [5]: 1.2 ×10⁻⁶ cm/s
hepatic extraction ratio at 5 µM [6]: 0.12
hepatic extraction ratio at 5 µM [7]: 0.35

COCC(C)(C)C#Cc1c(Cl)c2c(Cl)cc(C(N)=O)nc2n1[C@H]1CCCNC1
IC50 [1]: 1.6 nM
IC50 [2]: 4 nM
IC50 [3]: 1100 nM
EC50 [4]: 98 nM
EC50 (KG-1; Homo sapiens, KG-1): 219 nM
Papp at 5 µM [5]: 4.8 ×10⁻⁶ cm/s
hepatic extraction ratio at 5 µM [6]: 0.1
hepatic extraction ratio at 5 µM [7]: 0.32

NC(=O)c1cc(Cl)c2c(Cl)c(C#CC3COCCO3)n([C@H]3CCCNC3)c2n1 (stereo in doubt; 22a)
IC50 [1]: 2.3 nM
IC50 [2]: 8.8 nM
IC50 [3]: 1400 nM
EC50 [4]: 70 nM
EC50 (KG-1; kg-1): 77 nM
permeability [5]: 81 ×10⁻⁷ cm/s
hepatic extraction ratio at 5 µM [6]: 0.1
CLH [7]: 30%

NC(=O)c1cc(Cl)c2c(Cl)c(C#CC3CCOCC3)n([C@H]3CCCNC3)c2n1
IC50 [1]: 1.5 nM
IC50 [2]: 10.2 nM
IC50 [3]: 1700 nM
EC50 [4]: 53 nM
EC50 (KG-1; Homo sapiens, KG-1): 69 nM
Papp at 5 µM [5]: 3.4 ×10⁻⁶ cm/s
hepatic extraction ratio at 5 µM [6]: 0.07
hepatic extraction ratio at 5 µM [7]: 0.13
AUC(0-inf) [8]: 440 ng·h/mL
AUC(0-inf) [9]: 979 ng·h/mL
Cmax [10]: 91 ng/mL
half-life [11]: 7.41 h
half-life [12]: 10.2 h
bioavailability [13]: 67%
clearance [14]: 102 mL/min/kg
Vd [15]: 63 L/kg

CC(C)(CC#Cc1c(Cl)c2c(Cl)cc(C(N)=O)nc2n1[C@H]1CCCNC1)C(N)=O
IC50 [1]: 4.7 nM
IC50 [2]: 21 nM
IC50 [3]: > 10000 nM
EC50 [4]: 133 nM
EC50 (KG-1; Homo sapiens, KG-1): 269 nM
Papp at 5 µM [5]: 0.4 ×10⁻⁶ cm/s
hepatic extraction ratio at 5 µM [6]: 0.01
hepatic extraction ratio at 5 µM [7]: 0.06

CC(O)C#Cc1c(Cl)c2c(Cl)cc(C(N)=O)nc2n1[C@H]1CCCNC1 (some centres undefined)
IC50 [1]: 1.1 nM
Ki [1]: 0.7 nM
IC50 [2]: 9.3 nM
solubility thermodynamic [16]: 206 µM (≈ 78.5 µg/mL)
EC50 [4]: 13 nM
EC50 (KG-1; Homo sapiens, KG-1): 147 nM
Papp at 5 µM [5]: 0.34 ×10⁻⁶ cm/s
efflux ratio at 5 µM [17]: 37
inhibition at 10 µM (hERG (KCNH2) [18]): 20%
inhibition at 1 µM (hERG (KCNH2) [19]): 9%
hepatic extraction ratio at 5 µM [6]: 0

CC1(C#Cc2c(Cl)c3c(Cl)cc(C(N)=O)nc3n2[C@H]2CCCNC2)COC1
IC50 [1]: 1.6 nM
Ki [1]: 1.2 nM
IC50 [2]: 5.7 nM
IC50 [3]: 3000 nM
EC50 [4]: 37 nM
EC50 (KG-1; Homo sapiens, KG-1): 119 nM
Papp at 5 µM [5]: 2.9 ×10⁻⁶ cm/s
hepatic extraction ratio at 5 µM [6]: 0.05
hepatic extraction ratio at 5 µM [7]: 0.19

NC(=O)c1cc(Cl)c2c(Cl)c(C#CCN3CCCC3=O)n([C@H]3CCCNC3)c2n1
IC50 [1]: 2 nM
IC50 [2]: 6.7 nM
IC50 [3]: > 20000 nM
EC50 [4]: 93 nM
EC50 (KG-1; Homo sapiens, KG-1): 178 nM
Papp at 5 µM [5]: 0.01 ×10⁻⁶ cm/s
hepatic extraction ratio at 5 µM [6]: 0.03
hepatic extraction ratio at 5 µM [7]: 0.26

NC(=O)c1cc(Cl)c2c(Cl)c(C#CCCO)n([C@H]3CCCNC3)c2n1
IC50 [1]: 0.6 nM
Ki [1]: 0.1 nM
IC50 [2]: 2.7 nM
solubility thermodynamic [16]: 144 µM (≈ 54.9 µg/mL)
EC50 [4]: 18 nM
EC50 (KG-1; Homo sapiens, KG-1): 56 nM
Papp at 5 µM [5]: 0.18 ×10⁻⁶ cm/s
efflux ratio at 5 µM [17]: 8.8
inhibition at 10 µM (hERG (KCNH2) [18]): 25%
inhibition at 1 µM (hERG (KCNH2) [19]): 12%
hepatic extraction ratio at 5 µM [6]: 0

NC(=O)c1cc(Cl)c2c(Cl)c(C#CC3CCCO3)n([C@H]3CCCNC3)c2n1 (stereo in doubt; 20a)
IC50 [1]: 4.4 nM
IC50 [2]: 21 nM
solubility thermodynamic [16]: 207 µM (≈ 84.3 µg/mL)
EC50 [4]: 137 nM
EC50 (KG-1; kg-1): 223 nM
Papp at 5 µM [5]: 3.2 ×10⁻⁶ cm/s

NC(=O)c1cc(Cl)c2c(Cl)c(C#CCO)n([C@H]3CCCNC3)c2n1
IC50 [1]: 1.7 nM
Ki [1]: 3 nM
IC50 [2]: 11 nM
EC50 [4]: 59 nM
EC50 (KG-1; Homo sapiens, KG-1): 301 nM
Papp at 5 µM [5]: 0.08 ×10⁻⁶ cm/s
efflux ratio at 5 µM [17]: 120
inhibition at 10 µM (hERG (KCNH2) [18]): 28%
inhibition at 1 µM (hERG (KCNH2) [19]): 22%
hepatic extraction ratio at 5 µM [6]: 0

CN1CC(C#Cc2c(Cl)c3c(Cl)cc(C(N)=O)nc3n2[C@H]2CCCNC2)CC1=O (some centres undefined)
IC50 [1]: 3.1 nM
Ki [1]: 1.2 nM
IC50 [2]: 17.5 nM
IC50 [3]: > 20000 nM
EC50 [4]: 128 nM
EC50 (KG-1; Homo sapiens, KG-1): 155 nM
Papp at 5 µM [5]: 0.05 ×10⁻⁶ cm/s
hepatic extraction ratio at 5 µM [6]: 0.05
hepatic extraction ratio at 5 µM [7]: 0.22

COC(C)(C)CC#Cc1c(Cl)c2c(Cl)cc(C(N)=O)nc2n1[C@H]1CCCNC1
IC50 [1]: 2.3 nM
IC50 [2]: 10.4 nM
solubility thermodynamic [16]: 1.2 µM (≈ 0.508 µg/mL)
IC50 [3]: 4000 nM
EC50 [4]: 61 nM
EC50 (KG-1; Homo sapiens, KG-1): 172 nM
Papp at 5 µM [5]: 4.5 ×10⁻⁶ cm/s
hepatic extraction ratio at 5 µM [6]: 0.12
hepatic extraction ratio at 5 µM [7]: 0.33

NC(=O)c1cc(Cl)c2c(Cl)c(C#CC3COCCO3)n([C@H]3CCCNC3)c2n1 (stereo in doubt; 22b)
IC50 [1]: 2.3 nM
IC50 [2]: 6 nM
EC50 [4]: 95 nM
EC50 (KG-1; kg-1): 203 nM
permeability [5]: 9 ×10⁻⁷ cm/s
inhibition at 10 µM (hERG (KCNH2) [18]): 86%
inhibition at 1 µM (hERG (KCNH2) [19]): 20%
CLH [6]: 10%
CLH [7]: 4%

NC(=O)c1cc(Cl)c2c(Cl)c(C#CC3CNCCO3)n([C@H]3CCCNC3)c2n1 (stereo in doubt; 29b)
IC50 [1]: 1.4 nM
Ki [1]: 0.9 nM
IC50 [2]: 7.6 nM
IC50 [3]: > 20000 nM
EC50 [4]: 51 nM
EC50 (KG-1; kg-1): 197 nM
permeability [5]: 2 ×10⁻⁷ cm/s
CLH [6]: 0%
CLH [7]: 15%

NC(=O)c1cc(Cl)c2c(Cl)c(C#CC3CNCCO3)n([C@H]3CCCNC3)c2n1 (stereo in doubt; 29a)
IC50 [1]: 2.8 nM
IC50 [2]: 6.1 nM
IC50 [3]: 6000 nM
EC50 [4]: 283 nM
EC50 (KG-1; Homo sapiens, KG-1): 365 nM
permeability [5]: 8 ×10⁻⁷ cm/s
CLH [6]: 6%
hepatic extraction ratio at 5 µM [7]: 0.22

CC(O)CC#Cc1c(Cl)c2c(Cl)cc(C(N)=O)nc2n1[C@H]1CCCNC1 (some centres undefined)
IC50 [1]: 1 nM
Ki [1]: 0.6 nM
IC50 [2]: 6.1 nM
solubility thermodynamic [16]: 760 µM (≈ 300 µg/mL)
EC50 [4]: 32 nM
EC50 (KG-1; Homo sapiens, KG-1): 48 nM
Papp at 5 µM [5]: 0.24 ×10⁻⁶ cm/s
efflux ratio at 5 µM [17]: 53
inhibition at 10 µM (hERG (KCNH2) [18]): 23%
inhibition at 1 µM (hERG (KCNH2) [19]): 13%
hepatic extraction ratio at 5 µM [6]: 0.06

CC(C)(O)C#Cc1c(Cl)c2c(Cl)cc(C(N)=O)nc2n1[C@H]1CCCNC1
IC50 [1]: 2.2 nM
IC50 [2]: 9.9 nM
EC50 [4]: 36 nM
EC50 (KG-1; Homo sapiens, KG-1): 302 nM
Papp at 5 µM [5]: 0.14 ×10⁻⁶ cm/s
inhibition at 10 µM (hERG (KCNH2) [18]): 47%
inhibition at 1 µM (hERG (KCNH2) [19]): 20%
hepatic extraction ratio at 5 µM [6]: 0

CC(C)(C#N)CC#Cc1c(Cl)c2c(Cl)cc(C(N)=O)nc2n1[C@H]1CCCNC1
IC50 [1]: 5.8 nM
IC50 [2]: 29.4 nM
IC50 [3]: 3000 nM
EC50 [4]: 90 nM
EC50 (KG-1; Homo sapiens, KG-1): 113 nM
Papp at 5 µM [5]: 6.5 ×10⁻⁶ cm/s
hepatic extraction ratio at 5 µM [6]: 0.03
hepatic extraction ratio at 5 µM [7]: 0.08
